# Results published in US4923865A, “Substituted 1-(1H-imidazol-4-yl)alkyl-benzamides as anti-ischemics and as alpha-2-adrenergic receptor agonists” (U C B Societe Anonyme, priority 1988, dated 1990).
# Tested on: cerebral ischemia
# Experiment: Unilateral, multifocal cerebral ischemia in the rat (microsphere embolization)
# Assay type: in vivo, male Sprague-Dawley SPF rats
# Source text: (b) Unilateral, multifocal cerebral ischemia in the rat. In awake, male Sprague-Dawley SPF rats, aged from 8 to 9 months, a permanent, unilateral cerebral ischemia (or embolization) is caused by introduction of 2000 microspheres (provided by 3M, St. Paul, U.S.A.; diameter 58±2 μm) into the right carotid stream (A. M. BRALET et al., Stroke, 10, (1979), 34-38; M. LE PONCIN-LAFITTE et al., Pathol. Biol. (Paris), 30, (1982), 289-293) after the permanent ligature of the right pterygopalatine artery (Y. KIYOTA et al., Pharmacol. Biochem. Behav. 24, (1986), 687-692).
# The compound to be studied is administered for the first time 30 minutes before, and for the second time 30 minutes after embolization, while the control animals receive only a physiological salt solution. The animals are then allowed to rest. After 6 days of recovery, the surviving animals are measured for:
# (1) the residual neurological deficit obtained from the test of posture and gait of the animals (Test A, maximum score: 4 points). This test evaluates:
# (a) abnormal positioning of the hind paws (S. IRWIN, Psychophamacologia (Berlin), 13, (1968), 222-257);
# (b) contralateral inclination of the body during locomotion;
# (c) homolateral longitudinal flexion of the body, and
# (d) abnormal gait (B. KOLB et al., loc. cit.).
# (2) The sensorimotor functions (spontaneous motility, grasping reflex, placing reactions both visual and by loss of support (Test B, maximum score: 10 points); (C. CAPDEVILLE et al., loc. cit.).
# (3) The lateralized sensorimotor response (on the contralateral side) (Test C, maximum score: 3 points). This is evaluated by combining the measurements of visual placing reflex, head orientation relfex towards a lateral sensory stimulus, and the cutaneous plantar reflex (C. CAPDEVILLE et al., loc. cit.; J. F. MARSHALL et al., Science (Washington), 174, (1971), 523-525).
# (4) Tactile extinction on the left side (Test D, maximum score: 300 points). By contrast with the other tests mentioned above, for which the deficit is lower when the score is higher, the deficit is here more pronounced when the score approaches 300 (T. SCHALLERT et al., Pharmacol. Biochem. Behav. 16, (1982), 455-462).
# On the seventh day of recovery, the edema present in various ipsilateral cerebral structures is also measured (M. LE PONCIN-LAFITTE et al., loc. cit.).
# Table IV gives the results obtained in tests A to D for compound A, administered intraperitoneally at the dose of 0.76 μg/kg (3.2 nmoles/kg), i.e. The mean of the neurological scores determined for the whole group of surviving animals of the control group and of the treated group after 6 days of recovery. Also indicated in the Table is the mean variation (in g) of body weight measured on the 7th day of recovery. The statistical significant (P) of the difference between the mean values calculated for the control animals and for the treated animals is evaluated by the Mann-Whitney test.
# In Table V, the quantity of water (as an average of the percentage) retained in various ipsilateral cerebral structures in the control animals and in the treated animals surviving at the 7th day after embolization, is indicated.
smiles,measurement,setting,value
"Cl.NC(=O)c1cccc(Cc2c[nH]cn2)c1O [A, 2-hydroxyl-3-[(1H-imidazol-4-yl)methyl]-benzamide hydrochloride]",weight variation,"0.76 μg/kg i.p., 7th day of recovery, control -5.7, P <0.05",+0.8 g
same,"Mean neurological score 6 days after embolization, test C","0.76 μg/kg i.p., lateralized sensorimotor response, maximum 3 points, control 1.0, P <0.005",2.0
same,"Mean neurological score 6 days after embolization, test A","0.76 μg/kg i.p., posture and gait, maximum 4 points, control 1.0, P <0.01",2.0
same,"Mean neurological score 6 days after embolization, test B","0.76 μg/kg i.p., sensorimotor functions, maximum 10 points, control 7.3, P <0.05",8.0
same,"Mean neurological score 6 days after embolization, test D","0.76 μg/kg i.p., tactile extinction, maximum 300 points, higher = greater deficit, control 243, P <0.05",96
same,Quantity of water in ipsilateral diencephalon,"7th day after embolization, control 77.04, P < 0.05",76.32 average %
same,Quantity of water in ipsilateral hippocampus,"7th day after embolization, control 80.20, P < 0.05",79.79 average %
same,Quantity of water in ipsilateral cortex,"7th day after embolization, control 81.33, P < 0.01",80.36 average %
same,Quantity of water in ipsilateral corpus striatum,"7th day after embolization, control 81.57, P < 0.005",80.05 average %
